Measured values taken from PubChem BioAssay (NCI).
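Growth conditions: 96-well plates. Treatment: test compound, 48 hours, 5 concentrations. Analysis: linear interpolation between bracketing concentrations; unreached endpoints set to highest concentration. GI50 is the concentration that inhibits growth by half. At the TGI there is no net growth.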

What was measured:
Assay in all cases: NCI anticancer screen, dose series, 48 h
[1] = system: MALME-3M melanoma
[2] = system: SF-268 CNS
[3] = system: SK-MEL-2 melanoma
[4] = system: RXF 393 renal
[5] = system: BT-549 breast
[6] = system: SW-620 colon
[7] = system: SNB-19 CNS
[8] = system: DU-145 prostate
[9] = system: A549 NSCLC
[10] = system: SF-295 CNS

Compound	GI50 [1] [µM]	TGI [1] [µM]	GI50 [2] [µM]	TGI [2] [µM]	GI50 [3] [µM]	TGI [3] [µM]	GI50 [4] [µM]	TGI [4] [µM]	GI50 [5] [µM]	TGI [5] [µM]	GI50 [6] [µM]	TGI [6] [µM]	GI50 [7] [µM]	TGI [7] [µM]	GI50 [8] [µM]	TGI [8] [µM]	GI50 [9] [µM]	TGI [9] [µM]	GI50 [10] [µM]	TGI [10] [µM]
CC(C)(C)c1[nH]cnc1/C=c1\[nH]c(=O)/c(=C/c2ccccc2)[nH]c1=O	< 0.105	29.8	< 0.0123	> 70.1	< 0.0108	30.7	< 0.01	56.8	0.0139	12.1	< 0.01	50.7	< 0.01	> 100	0.0159	31.3	0.0181	41.5	< 0.01	20.5
CC(=O)OCC(=O)O[C@@H]1C[C@]2(C(C)C)O[C@@]1(C)[C@@H]1CC[C@@H](C)[C@H]1[C@@H]2OC(=O)/C=C/c1ccccc1	20.7	88.8	2.65	62.2	17.3	39.1	0.211	2.01	0.0987	7	31	> 100	30.2	> 100	18.4	40.6	18.5	> 100	17	43.9
Oc1c(CN2CCCC2)cc(COCc2ccc(Br)cc2)c2cccnc12	1.44	5.18	0.76	6.28	1.47	3.97	1.04	3.41	1.81	6.49	0.574	7.21	1.02	15.4	0.868	11	0.914	9.89	1.19	3.98
O=C(Nc1ccc(CN2CCOCC2)cc1)c1[nH]ncc1Nc1ncnc2sccc12	1.83	8.61	0.595	5.6	0.36	2.14	0.204	0.639	0.896	5.88	0.418	> 100	0.703	> 100	0.382	15.5	0.306	13.8	0.484	16.5
O=C(O)CCC(=O)c1ccc2ccc3cccc4ccc1c2c34	–	> 100	–	> 100	–	> 100	–	> 100	–	> 100	–	> 100	–	> 100	–	> 100	–	> 100	–	> 100
CC1CCN(CCCCCOc2ccc3oc4cc(Cl)ccc4c(=O)c3c2)CC1	8.41	15.3	7.4	15.8	9.3	17.5	5.75	12.7	6.54	13.1	6.16	13.3	8.03	15.2	7.14	13.9	7.49	14.4	6.8	13.2
CN(C)c1ncnc2c1nnn2C1OC(CO)C(O)C1O (stereo not given)	0.332	63.5	0.479	> 100	0.104	0.773	0.386	> 100	1.09	> 100	0.293	> 100	1.06	> 100	0.106	> 100	3.53	> 100	0.221	> 58.3
Cc1cccc(C(=O)/C=C/SC(=NC#N)SCc2ccccc2)c1	12.3	32	28.8	> 100	48.5	> 100	22.7	57.6	16.1	36.7	6.45	> 100	36.1	> 100	19.7	46.4	23.7	67.7	21.2	88.6
Cn1cc(C2=C(c3cccnc3)C(=O)NC2=O)c2ccccc21	> 25	> 25	> 25	> 25	> 13	25	5.63	> 17.9	> 25	> 25	> 25	> 25	> 25	> 25	> 25	> 25	> 25	> 25	8.13	> 25
